Data on 4 compounds can be found in patent US6057294A, “Peptide” (Northern Sydney Area Health Service of Pacific Highway, priority 1995, dated 2000).

Ends that are not written are not given here.

In experiment [1] the test system is adjuvant induced arthritis in rats. Put plainly: Adjuvant induced arthritis in rats. Particulars: for EFFECT: peptides 7 mg/rat, CS 50 mg/kg, DXM 2 mg/kg, given with MTB adjuvant; for tail thickness: n = 5. It is filed as in vivo, rat.
The test system of experiment [2] is diabetes in NOD/Lt (F) mice. Put plainly: Cyclophosphamide induced diabetes in NOD/Lt (F) mice. It counts as in vivo, mouse. The conditions noted are these: for PERCENTAGE OF MICE DEVELOPING DIABETES: 250 μg s.c. on Day -1, 0 and 1, n = 16. On the procedure: In yet another model of T-cell mediated disease the effects of subcutaneously injected core peptide on the induction of diabetes in NOD/Lt (F) mice was tested "blind" by an independent experimenter (Prof L Harrison, WEHI, Melbourne). NOD/Lt(F) mice 10 weeks old at experimental Day 0. This is a high-incidencestrain commonly used as an animal model for diabetes. Core peptide dissolved in squalane at a stock concentration of 3.33 mg/ml. Ovalbumin used as a control was suspended in squalane at a stock concentration of 3.33 mg/ml. Peptide and ovalbumin were "solubilised" just prior to injection, with vortexing. A total of 250 μg (75 μl) was injected subcutaneously on the right flank on Day -1, 0 and 1. Mice were given intraperitoneal cyclophosphamide in water at 300 mg/kg on Day 0. Blood glucose measurements were taken on Day 0, 10, 14 and 21. There were 16 mice in the treatment group and 16 in the ovalbumin control group.

Experiment [3] has as its system 2B4.11 T-cell activation (IL-2 production). Put plainly: Antigen presentation assay (IL-2 production by 2B4.11 T-cells, CTLL proliferation readout). It is filed as cell-based. Particulars: 100 μM. The text has this: An antigen presentation assay (described below) examined the ability of a number of peptides to inhibit T-cell activation following antigen recognition, by measuring the product of T-cell activation, Interleukin-2 (IL-2).
Material. The following cell lines were used: 2B4.11, a T-cell hybridoma that expresses a complete antigen receptor on the cell surface (Samelson et al., 1983) and produces IL-2 following antigen recognition (cytochrome c). Interleukin-2 dependent T-cell line (CTLL) for conventional biological IL-2 assays; and the B-cell hybridoma cell line LK 35.2 (LK, I-E^k bearing; Kappler et al., 1982) which acts as the antigen presenting cell. The hybridomas were grown in TCM. Cytochrome c (Sigma, USA) was added in the media to give a final concentration of 50 μM in the antigen presenting assay.
Peptides examined included: core peptide, seven other control peptides from a variety of sources having an equivalent length to core peptide and peptides A, B, C, D, E and F. The final concentration of the peptides in the antigen presentation assay was examined at several levels ranging from 10 μM to 100 μM.
Method. […] Supernatants were recovered and IL-2 content determined by CTLL proliferation. […] In addition to measuring ^3 H-thymidine incorporation, IL-2 measurements (IU/ml) were also determined. […]

The next experiment has as its system TCR on 2B4.11 cells. Nature of the experiment: TCR assembly and cell surface expression on T-cells by flow cytometry. It counts as cell-based. On the procedure: The T-cell hybridoma 2B4.11 which expresses a complete TCR on the cell surface was used as a positive control to assess the effects of peptides on TCR expression. The cells were grown in TCM. The β-deficient variant 21.2.2 and the β- and .zeta.-deficient cell line 3.12.29, derived by repetitive subcloning of 2B4.11 cells (Sussman et al., 1988) and lacking TCR expression were used as negative controls.
Peptides tested included core peptide, lipopeptides and a peptide from tumor necrosis factor receptor termed 558 (used as a negative control). […]
The following antibodies were used for immuno-precipitation and flow cytometry analysis: Mouse IgG2a monoclonal antibody (MAb) against TCR-α chain of the T-cell hybridoma 2B4 (A2B4-2, Samelson et al., 1983), MAb against 2B4.11 TCR-β chain (K)25), hamster IgG anti-CD3-ε MAb (145-2C11 [2C11], Leo et al., 1987), rabbit anti-CD3-ε polyclonal antiserum raised against purified mouse CD3-ε (127, Minami et al., 1987), anti-CD3-δ polyclonal antibody (R9) raised in goat immunized with a COOH-terminal peptide of the mouse CD3-δ chain (Samelson et al., 1986).
FACS analysis: 1×10^6 (2B4.11, 21.2.2) cells were incubated with a number of separate peptides and lipopeptides in a final concentration of 10 μM overnight. The cells were then wvashed with PBS and incubated with 50 μl primary antibody (A2B4 or 2C11) for 30 mins at 4° C. […]
For orientation: Flow cytometry measures light scatter and fluorescence of single cells or particles in a stream.

Experiment [4] deals with experimental allergic neuritis in Lewis rats. Put plainly: Experimental allergic neuritis (EAN). It counts as in vivo, rat. Particulars: peptide added to immunisation emulsion at 70 mg/ml.

With `C[C@@H]1C[C@H]2[C@@H]3CCC4=CC(=O)C=C[C@]4(C)[C@@]3(F)[C@@H](O)C[C@]2(C)[C@@]1(O)C(=O)CO` [DXM, dexamethasone, reference compound], the “onset of arthritis delayed by” value in experiment [1] (2 mg/kg) was in the range of 3 to 4 days. Besides, the EFFECT entry in experiment [1] is on record as “No effect”.

For the compound “Ovalbumin: Ovalbumin used as a control, suspended in squalane [reference compound]”, the “PERCENTAGE OF MICE DEVELOPING DIABETES” value worked out at 0% in experiment [2] (DAY 0), 0% in experiment [2] (DAY 10), 42% in experiment [2] (DAY 14) and 65% in experiment [2] (DAY 21).

`CCCCCCCCCCCCCCCC(=O)O` [Palmitic acid, reference compound]: the “effect on IL-2 production” value in experiment [3] was “did not affect IL-2 production”.

As to GLRILLLKV [core peptide], the “cell surface expression of TCR” value in the experiment on TCR on 2B4.11 cells (10 μM, overnight, 2B4.11 cells) is “did not alter the cell surface expression”. In addition, the “T-cell surface antigen receptor expression” value in the experiment on TCR on 2B4.11 cells (100 μM, incubation 1-10 days) is “no change in T-cell surface antigen receptor expression”. Further, in experiment [3], the “reduction in IL-2 production compared to control” value was 15%-30%. The “EFFECT OF PEPTIDE” value in experiment [1] (1.7 mg) was “No effect”; in experiment [1] (3.5 mg), “Protective”; in experiment [1] (7 mg) it was “Protective”. Further, the tail thickness in experiment [1] (DAY 5, MTB + peptide) was found to be 7.62 mm; in experiment [1] (DAY 10, MTB + peptide) it was 8.24 mm; in experiment [1] (DAY 15, MTB + peptide) it was 8.76 mm; in experiment [1] (DAY 20, MTB + peptide), 8.96 mm; in experiment [1] (DAY 25, MTB + peptide), 9.10 mm. For the same compound, the “ulceration and inflammation at the site of injection” value in experiment [1] (compared with MTB alone) is recorded as “not present”. Moreover, in experiment [1] (comparison among peptides), the “effect on adjuvant arthritis” value is recorded as “Best results”. The “animals with no evidence of arthritis” value in experiment [1] (first experiment, 3 rats per group, 0.1 ml suspension in adjuvant, after 18 days) is recorded as 2/3. Also, in experiment [1], the EFFECT entry was “Protective”. For the same compound, the “difference in tail measurements versus saline injected rats” value in experiment [1] (rat, in vivo) is “not statistically significant”. The “induction and clinical severity of EAN” value in experiment [4] is “delayed induction and clinical severity of disease”. Further, the “PERCENTAGE OF MICE DEVELOPING DIABETES” value in experiment [2] (DAY 0) stood at 0%; in experiment [2] (DAY 10), 0%; in experiment [2] (DAY 14), 5%; in experiment [2] (DAY 21), 12%. The “effect on the induction of autoimmune beta cell destruction (diabetes)” value in experiment [2] (mouse, in vivo) is “protective effect”.
